Consider 29 molecules from patent EP4563571A1, “PRMT5 INHIBITORS” (Beijing Earthwise Technology Co., Ltd., priority 2022, dated 2024).

Read-outs that look alike come from different tables or passages of the source.

By GI50 is commonly meant the concentration that inhibits growth by half. In general, IC50 refers to the midpoint of a concentration-inhibition curve.

Holding throughout (assay type): cell-based
Assay [1] concerns HCT116^MTAP Deletion cells. Description: Anti-proliferation assay on cells (Cell-Titer Glo, 10 days). In outline: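 HCT116^MTAP Deletion cells seeded at 50 cells/well and exposed to 10-point 3-fold compound dilutions in duplicate (0.1% DMSO) for 10 days at 37 °C. Viability read by CellTiter-Glo luminescence; IC50 derived from GI50 curves of concentration versus inhibition.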
Assay [2] deals with SDMA in HCT116^MTAP Deletion. Description: In-Cell Western Assay of cellular SDMA. Conditions: HCT116^MTAP Deletion cells, 96 hours; read-out: SDMA inhibition IC50 (µM) in HCT116^MTAP Deletion. As for the experimental part:
Compound dissolution: All the compounds were dissolved in dimethyl sulfoxide (DMSO) and then stored. The compounds were stored at -20°C for long term storage.
2.3 Cell culture and passaging
The cells were cultured strictly in accordance with ATCC requirements. […] The supernatant was removed. The cells were resuspended with complete culture medium, inoculated into a culture dish at the required density, and cultured in an incubator at 37 °C, 95% humid air, and 5% carbon dioxide. The culture medium was replenished or the cells were passaged every 2-3 days depending on the cell growth condition.
2.4 In-Cell Western Assay of SDMA
When the confluency of cells in the culture dish reached about 90%, the cells were washed twice with PBS, and then digested with trypsin. 100 µl of the cells was inoculated into each well of a 96-well plate (800 cells/well). The plate was incubated overnight in a 37 °C and 5% CO2 incubator. 50 µL of 3x final concentration of a compound was added to the cell culture plate. Each compound was subjected to a 3-fold dilution, resulting in 10 concentration gradients, in duplicate, and the final concentration of DMSO was 0.5%. The plate was incubated in a 37 °C and 5% CO2 incubator for 96 hours.
150µL of 8% paraformaldehyde was added to each well, and the plate was incubated at room temperature for 15 minutes. The supernatant was discarded. The plate was washed with PBS, and 200µL of freshly prepared 1x Permeabilization buffer was added to each well. The plate was incubated at room temperature for 30 minutes. The supernatant was discarded. 200µL of 1x Blocking buffer was added to each well, and the plate was incubated at room temperature for 2 hours. The supernatant was discarded. 50µL of primary antibody (CST, 1x Incubation buffer 1:500 dilution) was added to each well, and the plate was incubated at 4°C overnight. The supernatant was discarded. 250µL of 1x Washing buffer was added to each well, and the plate was washed three times. 50µL of secondary antibody (IRDye 800CW Goat anti-Rabbit IgG and CellTag 700 dye, 1:800 and 1:500 diluted in Incubation buffer) was added to each well, and the plate was incubated at room temperature for 1 hour. The supernatant was discarded. The plate was washed with 1x Washing buffer. Signals were detected using Licor Odyssey CLX. […] According to the different drug concentrations and their corresponding inhibition rates, the IC50 curve was drawn using GraphPad 8.0 software. The data were analyzed, and the final IC50 value was obtained. […] Table 3 Inhibitory activity on cellular SDMA

The test system of the next assay is HCT116 cells. Description: Anti-proliferation assay on cells (Cell-Titer Glo, 10 days). Conditions: for Selectivity multiple of HCT116^MTAP WT GI50/ HCT116^MTAP Deletion GI50: ratio of GI50 values. As for the experimental part: Assay example 1: Method of anti-proliferation assay on cells
HCT116^MTAP Deletion cells were from Pharmaron (China); HCT116 cells were from ATCC; McCoy's 5A medium was purchased from Invitrogen (USA); penicillin-streptomycin and fetal bovine serum were purchased from Gibco (USA); a 384-well plate was purchased from PerkinElmer (USA); and Cell-Titer Glo reagent was purchased from Promega (USA).
Compound dissolution: All the compounds were dissolved in dimethyl sulfoxide (DMSO) and then stored. The compounds were stored at room temperature in a dry condition for 3 months for short term storage or at -20 °C for long term storage.
Cell culture and passaging
The cells were cultured strictly in accordance with ATCC requirements. The cell culture medium (McCoy's 5A medium + 10% fetal bovine serum + 1% penicillin + streptomycin) was transferred to a 15 mL centrifuge tube and centrifuged at 1000 rpm for 5 min. The supernatant was removed. The cells were resuspended with complete culture medium, inoculated into a culture dish at the required density, and cultured in an incubator at 37 °C, 95% humid air, and 5% carbon dioxide. The culture medium was replenished or the cells were passaged every 2-3 days depending on the cell growth condition.
Cell proliferation activity assay
When the confluency of cells in the culture dish reached about 90%, the cells were washed twice with PBS, and then treated with trypsin to become single cells. The cells were counted, and 40µl of the cells was inoculated into each well of a 384-well plate (50 cells/well). The plate was equilibrated at 37 °C and 5% carbon dioxide for 10 to 15 minutes. The compounds were injected into the 384-well plate using Echo550, and positive control and negative control (0.1% DMSO) were set up. Each compound was subjected to a 3-fold dilution, resulting in 10 concentration gradients, in duplicate, and the content of DMSO was 0.1%. The 384-well plate was incubated in a cell culture incubator for 10 days.
Then, 40 µl of cell proliferation assay reagent (CTG) was added to the 384-well plate, and the plate was shaken to mix well. Then, the 384-well plate was incubated at 37 °C and 5% carbon dioxide in the dark for 30 minutes. The data were read using the Envision multifunctional microplate reader. […] According to the different drug concentrations and their corresponding inhibition rates, the GI50 curve was drawn using GraphPad 8.0 software. The data were analyzed, and the final IC50 value was obtained.
In addition, the compounds of the present disclosure also have selectivity for mutant HCT116 cells. […] The selectivity data of representative compounds are shown in Table 2: Table 2 Selectivity data of representative compounds

Where [3] appears, read: HCT116^MTAP Deletion cells, 10 days incubation, CTG readout, read-out: HCT116^MTAP Deletion GI50.
Where [4] appears, read: 240 h, HCT116^MTAP Deletion cells, 10 days incubation, CTG readout, read-out: HCT116^MTAP Deletion GI50.

`CN(C(=O)C(=O)Nc1cnc(N)c2c1cnn2C)C1COCc2nc(C(F)(F)F)ccc21` (single isomer, unassigned) [Example 152-P2]: the GI50 in assay [1] (setting [3]) is < 10 nM. Also, in assay [2], the IC50 was 0.01 to 0.1 µM.
In the case of `C[C@H](c1ncccn1)N(Cc1ccc(C(F)(F)F)cn1)C(=O)C(=O)Nc1cnc(N)c2cnn(C)c12` [Example 34], the GI50 was 100 to 1000 nM in assay [1] (setting [3]), ≤ 100 nM in assay [1] (read-out: GI50 for HCT116^MTAP Deletion) and 1000 to 10000 nM with HCT116 cells (HCT116 cells). The “selectivity for mutant HCT116 cells” value in the assay with HCT116 cells (HCT116 GI50 versus HCT116^MTAP Deletion GI50, text b891) is reported as “more than 300 times”.
As for `CCC(C)N(Cc1ccc(-c2ccn(C)n2)cn1)C(=O)C(=O)Nc1cnc(N)c2c1cnn2C` (stereo not shown) [Example 88], the GI50 in assay [1] (setting [4]) is < 10 nM. For the same molecule, the “Selectivity multiple of HCT116^MTAP WT GI50/ HCT116^MTAP Deletion GI50” value (from here on “Selectivity multiple”) in the assay with HCT116 cells was found to be 161.
Take `CN(C(=O)C(=O)Nc1cnc(N)c2c1cnn2C)C1COc2cc(C(F)(F)F)ccc21` (stereo not shown) [Example 89]: the concentration for 50% growth inhibition (GI50) in assay [1] (setting [3]) is < 10 nM. Moreover, the “Selectivity multiple” value with HCT116 cells is 160.
Consider `CCC(C)N(Cc1ccc(-c2cnn(C)c2)cn1)C(=O)C(=O)Nc1cnc(N)c2c1cnn2C` (stereo not shown) [Example 90], for which the GI50 in assay [1] (setting [4]) is < 10 nM. Further, the “Selectivity multiple” value in the assay on HCT116 cells is on record as 119.
Take `CN(C(=O)C(=O)Nc1cnc(N)c2c1cnn2C)C1COCc2cc(-c3ccn(C)n3)ccc21` (stereo not shown) [Example 93]: the GI50 in assay [1] (setting [4]) was in the range of 10 to 100 nM. Moreover, the “Selectivity multiple” value in the assay with HCT116 cells was determined as 244.
As for `CN(C(=O)C(=O)Nc1cnc(N)c2c1cnn2C)C1COCc2cc(Br)ccc21` (stereo not shown) [Example 94], the GI50 in assay [1] (setting [4]) was < 10 nM. In addition, the “Selectivity multiple” value in the assay with HCT116 cells is recorded as 144.
As for `CN(C(=O)C(=O)Nc1cnc(N)c2c1cnn2C)C1COCc2cc(-c3cccnc3)ccc21` (stereo not shown) [Example 95], in assay [1] (setting [4]), the GI50 was < 10 nM. Also, the “Selectivity multiple” value in the assay with HCT116 cells is recorded as 224.
As for `Cn1ncc2c(NC(=O)C(=O)N(C3CC3)C3COCc4cc(C(F)(F)F)ccc43)cnc(N)c21` (stereo not shown) [Example 98], the GI50 in assay [1] (setting [4]) is < 10 nM. Also, the “Selectivity multiple” value with HCT116 cells worked out at 106.
`CN(C(=O)C(=O)Nc1cnc(N)c2c1cnn2C)C1COCc2cc(-c3cnn(C)c3)ccc21` (stereo not shown) [Example 99]: the GI50 in assay [1] (setting [3]) was < 10 nM. Moreover, in the assay with HCT116 cells, the “Selectivity multiple” value was determined as 285.
For the molecule `CN(C(=O)C(=O)Nc1cnc(N)c2c1cnn2C)C1COCc2cc(C3=CCOCC3)ccc21` (stereo not shown) [Example 100], in assay [1] (setting [3]), the GI50 is < 10 nM. In addition, the “Selectivity multiple” value in the assay on HCT116 cells is on record as 179.
On to `CN(C(=O)C(=O)Nc1cnc(N)c2c1cnn2C)C1COCc2cc(C3CC3)ccc21` (stereo not shown) [Example 104], for which the GI50 in assay [1] (setting [4]) was 10 to 100 nM. In addition, in the assay on HCT116 cells, the “Selectivity multiple” value was found to be 144.
For `CC(C)C(C)N(Cc1ccc(C(F)(F)F)cn1)C(=O)C(=O)Nc1cnc(N)c2c1cnn2C` (stereo not shown) [Example 110-P1] the same measures were < 10 nM and 146.
As for `CN(C(=O)C(=O)Nc1cnc(N)c2c1cnn2C)C1COCc2cc(C#N)ccc21` (stereo not shown) [Example 111], in assay [1] (setting [4]), the GI50 is < 10 nM. Further, the “Selectivity multiple” value in the assay with HCT116 cells is listed as 354.
Turning to `CCC(C)N(Cc1ccc(OC(F)(F)F)cn1)C(=O)C(=O)Nc1cnc(N)c2c1cnn2C` (stereo not shown) [Example 113], the GI50 in assay [1] (setting [4]) is < 10 nM. Moreover, the “Selectivity multiple” value in the assay on HCT116 cells stood at 125.
For `CN(C(=O)C(=O)Nc1cnc(N)c2c1cnn2C)C1COCc2cc(-c3cnn(C)c3)ccc21` (stereo not shown) [Example 124-P1], in assay [1] (setting [3]), the GI50 was < 10 nM. In the assay on HCT116 cells, the “Selectivity multiple” value is recorded as 215.
Consider `CN(C(=O)C(=O)Nc1cnc(N)c2c1cnn2C)C1COCc2cc(-c3ccnn3C)ccc21` (stereo not shown) [Example 156-P1], for which, in assay [2], the IC50 was < 0.01 µM.
In the case of `CN(C(=O)C(=O)Nc1cnc(N)c2c1cnn2C)C1COCc2cc(C3=CCC(F)(F)CC3)ccc21` (stereo not shown) [Example 157], the GI50 in assay [1] (setting [4]) was < 10 nM. In addition, in the assay on HCT116 cells, the “Selectivity multiple” value came out at 193.
As to `CN(C(=O)C(=O)Nc1cnc(N)c2c1cnn2C)C1COc2cc(-c3ccnn3C)ccc21` (stereo not shown) [Example 161], in assay [1] (setting [3]), the GI50 is < 10 nM. Further, the “Selectivity multiple” value in the assay on HCT116 cells is 169.
For `CN(C(=O)C(=O)Nc1cnc(N)c2c1cnn2C)C1COc2cc(-c3cnc(C(F)(F)F)s3)ccc21` (stereo not shown) [Example 164], the GI50 in assay [1] (setting [4]) was in the range of 10 to 100 nM. For the same molecule, the “Selectivity multiple” value in the assay on HCT116 cells was determined as 337.
Regarding `Cc1cc(-c2ccc3c(c2)OCC3N(C)C(=O)C(=O)Nc2cnc(N)c3c2cnn3C)on1` (stereo not shown) [Example 165], the concentration for 50% growth inhibition (GI50) in assay [1] (setting [4]) fell in the range of 10 to 100 nM. For the same molecule, the “Selectivity multiple” value in the assay on HCT116 cells came to 295.
For `CN(C(=O)C(=O)Nc1cnc(N)c2c1cnn2C)C1COCc2cc(C(F)(F)F)c(F)cc21` (stereo not shown) [Example 167], in assay [1] (setting [4]), the GI50 was < 10 nM. In the assay with HCT116 cells, the “Selectivity multiple” value was 61.
Take `Cc1nn(C)c(C)c1-c1ccc2c(c1)COCC2N(C)C(=O)C(=O)Nc1cnc(N)c2c1cnn2C` (stereo not shown) [Example 178]: the GI50 in assay [1] (setting [4]) was < 10 nM. Besides, the “Selectivity multiple” value with HCT116 cells is listed as 116.
`Cc1ccc(-c2ccc3c(c2)COCC3N(C)C(=O)C(=O)Nc2cnc(N)c3c2cnn3C)cn1` (stereo not shown) [Example 184]: in assay [1] (setting [4]), the GI50 is < 10 nM. Besides, in the assay with HCT116 cells, the “Selectivity multiple” value is given as 221.
For `CN(C(=O)C(=O)Nc1cnc(N)c2c1cnn2C)C1COCc2cc(-c3ccc(C(F)(F)F)nc3)ccc21` (stereo not shown) [Example 185], in that order: < 10 nM and 240.
Consider `CN(C(=O)C(=O)Nc1cnc(N)c2c1cnn2C)C1COc2cc(Cl)c(Cl)cc21` (stereo not shown) [Example 186-P1], for which the “Selectivity multiple” value in the assay on HCT116 cells is 210.
`CN(C(=O)C(=O)Nc1cnc(N)c2c1cnn2C)C1COCc2cc(-c3cnc(C4CC4)s3)ccc21` (stereo not shown) [Example 194]: the GI50 in assay [1] (setting [4]) was < 10 nM. Also, the “Selectivity multiple” value with HCT116 cells came out at 429.
For the molecule `CN(C(=O)C(=O)Nc1cnc(N)c2c1cnn2C)C1COCc2c1ccc(C(F)(F)F)c2F` (stereo not shown) [Example 195], the GI50 in assay [1] (setting [4]) was < 10 nM. Also, the “Selectivity multiple” value in the assay with HCT116 cells is 226.
On to `Cc1ncccc1-c1ccc2c(c1)COCC2N(C)C(=O)C(=O)Nc1cnc(N)c2c1cnn2C` (stereo not shown) [Example 201], for which the GI50 in assay [1] (setting [4]) was < 10 nM. Moreover, in the assay on HCT116 cells, the “Selectivity multiple” value was 128.
